We go through 4 compounds from patent US20130150350A1, “Derivatives of 1-Phenyl-1,5-Dihydro-Benzo[B] [1,4]Diazepine-2,4-Dione as Inhibitors of HIV Replication” (BOEHRINGER INGELHEIM INTERNATIONAL GMBH, priority 2010, published 2013).

As usually defined, the IC50 is the concentration at which inhibition is half-maximal. As a reminder, the EC50 is the concentration giving half of the maximal effect. Low readings indicate higher potency in that assay, high ones lower potency in that assay.

Like-named read-outs stand apart in the source and are kept apart here.

Assay [1] deals with T1, HIV-1NL4-3 CA-NC protein (SEQ ID NO: 2) (Human immunodeficiency virus type 1 group M subtype B, UniProt P12493, G226D).
T1 construct: HIV-1NL4-3 CA-NC, Gag residues 133-432; initiator Met (start codon introduced by PCR primer) (N); made in house; host or cells: E. coli BL21(DE3), pET-11a
Description: Immobilized capsid assembly assay (CAA). Format: biochemical. The source says: (§1) SEQ ID NO: 1 is a nucleic acid of 900 base pairs encoding HIV-1NL4-3 CA-NC, Gag residues 133-432, having the CA G94D mutation (SEQ ID NO: 2). SEQ ID NO: 1, is transferred to pET-11a expression vector (Novagen™) by PCR amplification using primers that introduce an NdeI site and a start codon at the 5′-end and a BamHI site and a stop codon at the 3′-end. Resistance mutations in CA were identified by passage of the HIV-1 virus in the presence of compounds of the invention, namely V27A/I, K30R, S33G, V36T, T58I, G61E, G208A/R, E213G, K30R/T58I, K30R/G208R, V36T/G208R, S33G/T58I, S33G/G208R and T58I/G208R, all numbered with reference to SEQ ID NO: 2,. These resistance mutations may be introduced in the expression vector using the QuikChange® II Site-Directed Mutagenesis Kit (Stratagene) according to the manufacturer's instructions. SEQ ID NOS: 2 is expressed in the BL21(DE3) E. coli cells (Novagen™). Briefly, LB media is inoculated with overnight pre-cultures and grown at 37° C. until mid log-phase (Abs600 ˜0.6), protein expression is induced by addition of 0.5-1 mM isopropyl-β,D-thiogalactopyranoside (IPTG) and carried out for 4 to 6 hours at 30° C. Cells are harvested by centrifugation and pellets are stored at −80° C. until purification.
(§2) Purification of CA-NC (SEQ ID NO: 2) is as follows: 5 to 10 g of cell paste are lysed by sonication in 40 ml of Buffer A [20 mM Tris pH 7.5; 1 μM ZnCl2; 10 mM β-mercaptoethanol] supplemented with 0.5M NaCl and Complete EDTA-free® protease inhibitors tablets (Roche). Nucleic acids and cell debris are removed by adding 0.11 volumes of 0.2 M ammonium sulfate and an equivalent volume of 10% poly-(ethyleneimine) pH 8.0, stirring the sample for 20 minutes at 4° C., followed by centrifugation at 30 000×g for 20 minutes. SEQ ID NO: 2 is recovered from the supernatant by adding 0.35 volumes of saturated ammonium sulfate solution followed by centrifugation at 10 000×g for 15 minutes. The pellet is dissolved in 10 ml of Buffer A+0.1 M NaCl and dialyzed overnight in the same buffer but at 0.05 M NaCl (Dialysis Buffer). The sample is then cleared by centrifugation and passed on a 1-ml HiTrapTMSP HP column (GE Healthcare) pre-equilibrated with Dialysis Buffer. SEQ ID NO: 2 is eluted with Buffer A+0.5 M NaCl, fractions containing the protein are pooled; concentration determination is done by Abs280 using the calculated molar extinction coefficient (E=40220 M-1 cm-1).
Reacti-Bind Neutravidin Coated black 384-well plates (Pierce Cat#15402) are washed with 80 μl/well of Buffer A (50 mM Tris pH 8.0; 350 mM NaCl; 10 μM ZnSO4; 0.0025% CHAPS (w/v); 50 μg/ml bovine serum albumin (BSA); 1 mM DTT). Immobilization of a 5′-end biotin labeled (TG)25 oligonucleotide (Integrated DNA Technology Inc.) is carried out by adding 50 μl/well of a 25 nM solution of oligonucleotide in Buffer A+5 mg/ml of BSA (Sigma™) and incubating overnight. Unbound material is removed by two 80 μl/well washes with Buffer A. Assembly reactions are performed in 60 μl/well reactions comprising test compound, 100 nM of 5′-end fluorescein labeled (TG)25 oligonucleotide (Integrated DNA Technology Inc.) and 2 μM of CA-NC protein (SEQ ID NO: 2), using Buffer A+1% DMSO. Assembly reactions are incubated for 2 hours at room temperature and non-immobilized material is removed by two successive 80 μl/well washes with Buffer A. Finally, 80 μl/well of Buffer A+0.1% sodium dodecyl sulfate (SDS) is added and incubated for 15 minutes prior to quantification of captured fluorescence on a Victor2 plate reader (PerkinElmer Life Sciences) equipped with fluorescein excitation and emission filters using the standard manufacturer's settings for fluorescein fluorescence. The amount of captured fluorescence is considered to be proportional to the level of assembly. The IC50 values for each compound are generated by fitting inhibition curves from ten-point dilution series to the following equation: […]

Assay [2] relates to HIV-1 replication in C8166 LTRluc cells. In words: C8166 HIV-1 luciferase assay. Format: cell-based. The settings on record: Human immunodeficiency virus 1, 72 h, inhibition of HIV-1 replication, moi 0.005, 3 days. The method, then: The assay used to measure inhibition of HIV replication is as described in WO 2004/050643, pages 73-75, herein incorporated by reference, with the following modifications:
Serial dilutions of HIV-1 inhibitors are prepared in complete media from DMSO stock solutions. Eleven serial dilutions of desired concentration are prepared in a 1 mL deep well titer plate (96 wells). The 12th well contains complete media with no inhibitor and serves as the positive control. All samples contain the same concentration of DMSO 0.1% DMSO). Inhibitor is added, to triplicate wells, of a 96 well tissue culture treated clear view black microtiter plate (Corning Costar catalogue #3904). The total volume per well is 200 μL of media containing the cells and inhibitor. The last row is reserved for uninfected C8166 LTRluc cells to serve as the background blank control and the first row is media alone.
Count C8166 LTRluc cells and place in a minimal volume of complete RPMI 1640 in a tissue culture flask (ex. 30×10^6 cells in 10 mL media/25 cm^2 flask). Infect cells with HIV-1 at a moi of 0.005. Incubate cells for 1.5 hours at 37° C. on a rotating rack in a 5% CO2 incubator. Resuspend cells in complete RPMI to give a final concentration of 25,000-cells/well. Add cells to wells of 96 well microtiter plate containing inhibitors. Add 25,000 uninfected C8166—LTRluc cells/well in 200 μL complete RPMI to last row for background control. Incubate cells at 37° C. in 5% CO2 incubator for 3 days.

Assay [3] addresses T2, assembled HIV-1 capsid complexes (CA-NC protein, SEQ ID NO: 2) (Human immunodeficiency virus type 1 group M subtype B, UniProt P12493, G226D).
T2 construct: HIV-1NL4-3 CA-NC, Gag residues 133-432; initiator Met (start codon introduced by PCR primer) (N); made in house; host or cells: E. coli BL21(DE3), pET-11a
Description: Capsid disassembly assay (CDA). Format: biochemical.
Source text: The GAG polyprotein is the major structural protein required for HIV viral particle assembly. During the maturation process, Gag is cleaved by the viral protease and releases its four major proteins, matrix (MA), capsid (CA), nucleocapside (NC) and p6, as well as two spacer peptides termed SP1 and SP2. This triggers profound morphological changes to the viral particle as CA will reassemble to form the viral core, a structure that is essential for viral infectivity.
as §1, §2
Reacti-Bind Neutravidin Coated black 384-well plates (Pierce Cat#15402) are washed with 80 μl/well of Buffer A (50 mM Tris pH 8.0; 350 mM NaCl; 10 μM ZnSO4; 0.0025% CHAPS (w/v); 50 μg/ml BSA; 1 mM DTT). Immobilization of a 5′-end biotin labeled (TG)25 oligonucleotide (Integrated DNA Technology Inc.) is carried out by adding 50 μl/well of a 25 nM solution of oligonucleotide in Buffer A+5 mg/ml BSA and incubating overnight. Unbound material is removed by two 80 μl/well washes with Buffer A. Assembly reactions are performed in 60 μl/well reactions comprising 100 nM of 5′-end fluorescein labeled (TG)25 oligonucleotide (Integrated DNA Technology Inc.) and 2 μM of CA-NC protein (SEQ ID NO: 2), using Buffer A. Assembly reactions are incubated for 2 hours at room temperature and non-immobilized material is removed by washing 80 μl/well with Buffer A. Test compounds, serially diluted in Buffer A+0.125% dimethyl sulfoxide (DMSO), are added to the wells (60 μl/well) and incubated at room temperature for 2 hours. […]

Setting [4] is: concentration for 50% inhibition of capsid assembly, 2 μM CA-NC, 2 hours at room temperature, read-out: IC50 (μM) CAA.
Setting [5] is: concentration for 50% disassembly of assembled complexes, 2 hours at room temperature, read-out: IC50 (μM) CDA.

`CCN1C(=O)C(c2ccc(-c3cccnc3)cc2)C(=O)N(c2ccccc2)c2cc(C(F)(F)F)ccc21` (stereo not drawn) [Compound 2030]: the concentration for half-maximal inhibition (IC50) came to 0.39 µM in assay [1] and 0.32 µM in assay [3]. The compound further displayed an EC50 in assay [2] of 400 nM.

Regarding `CCCn1cc(-c2cc(C3C(=O)N(CC)c4ccc(C(F)(F)F)cc4N(c4ccccc4)C3=O)cc(OC)c2O)cn1` (stereo not drawn) [Compound 2059], the values for the IC50 in assay [1] and in assay [3] were 0.45 µM and 0.16 µM, respectively. This compound yielded an EC50 in assay [2] of 70 nM.

As to `CCN1C(=O)N(c2ccccc2)C(=O)N(c2ccccc2)c2cc(C(F)(F)F)ccc21` [Compound 3011], the IC50 in assay [1] (setting [4]) stood at 0.63 µM; in assay [3] (setting [5]) it was 0.18 µM. Also, the EC50 in assay [2] came to 600 nM.

As to `CCN1C(=O)N(c2ccc(O)c(-c3cccnc3)c2)C(=O)N(c2ccccc2)c2cc(C(F)(F)F)ccc21` [Compound 3014], the half-inhibitory concentration (IC50) in assay [1] (setting [4]) came to 0.31 µM; in assay [3] (setting [5]), 0.14 µM. For the same compound, the EC50 in assay [2] amounted to 200 nM.
